Experimental data: ChEMBL document CHEMBL5226377, “Totopotensamide Congeners from a Halogenase-Inactivated Mutant” (J Nat Prod, 2023)

Experiments:
Assay type in all cases: functional, cell-based
A549 = test: Cytotoxicity against human A549 cells assessed as inhibition of cell growth incubated for 24 hrs by MTT assay; conditions: A549, 24 h
Calu-3 = test: Cytotoxicity against human Calu-3 cells assessed as inhibition of cell growth incubated for 24 hrs by MTT assay; conditions: Calu-3, 24 h
PANC-1 = test: Cytotoxicity against human PANC-1 cells assessed as inhibition of cell growth incubated for 24 hrs by MTT assay; conditions: PANC-1, 24 h
BXPC-3 = test: Cytotoxicity against human BXPC-3 cells assessed as inhibition of cell growth incubated for 24 hrs by MTT assay; conditions: BXPC-3, 24 h

Which IC50 (A549) does the source give for `CC[C@H](C)[C@@H]1NC(=O)[C@H](c2cc(O)c(C)c(O)c2)NC(=O)[C@H](NC(=O)[C@H](C)NC(=O)[C@H](NC(=O)CC(=O)[C@@H](C)C[C@@H](C)C[C@@H](C)[C@H](O)[C@@H](C)[C@@H](O)CC)[C@@H](C)O)[C@@H](C)NC(=O)CNC1=O` here?
The IC50 was 58.8 µM.

And the IC50 (Calu-3)?
Its IC50 is over 100 µM.

What about the IC50 (PANC-1) of the same compound?
Its IC50 is 42.1 µM.

And the IC50 (BXPC-3)?
Its IC50 is 30.4 µM.

For `CC[C@H](C)[C@@H]1NC(=O)[C@H](c2cc(O)c(C)c(O)c2Cl)NC(=O)[C@H](NC(=O)[C@H](C)NC(=O)[C@H](NC(=O)CC(=O)[C@@H](C)C[C@@H](C)C[C@@H](C)[C@H](O)[C@@H](C)[C@@H](O[C@@H]2O[C@H](CO)[C@@H](OC)[C@H](O)[C@H]2O)[C@@H](C)O)[C@@H](C)O)[C@@H](C)NC(=O)CNC1=O`, which IC50 (A549) is on record?
Its IC50 is over 100 µM.

What about the IC50 (Calu-3) of the same compound?
Its IC50 is over 100 µM.

What about the IC50 (PANC-1) of the same compound?
Its IC50 is over 100 µM.

What about the IC50 (BXPC-3) of the same compound?
Its IC50 is over 100 µM.

For `CC[C@H](C)[C@@H]1NC(=O)[C@H](c2cc(O)c(C)c(O)c2)NC(=O)[C@H](NC(=O)[C@H](C)NC(=O)[C@H](NC(=O)CC(=O)[C@@H](C)C[C@@H](C)C[C@@H](C)[C@H](O)[C@@H](C)C(=O)[C@@H](C)O)[C@@H](C)O)[C@@H](C)NC(=O)CNC1=O`, which IC50 (A549) is on record?
The IC50 was 9.2 µM.

And the IC50 (Calu-3)?
The IC50 was 18.8 µM.

What about the IC50 (PANC-1) of the same compound?
The IC50 was 6.5 µM.

And the IC50 (BXPC-3)?
Its IC50 is 2.3 µM.

Which IC50 (A549) does the source give for `CCC(=O)[C@H](C)[C@@H](O)[C@H](C)C[C@H](C)C[C@H](C)C(=O)CC(=O)N[C@@H](C(=O)N[C@@H](C)C(=O)N[C@H]1C(=O)N[C@@H](c2cc(O)c(C)c(O)c2)C(=O)N[C@@H]([C@@H](C)CC)C(=O)NCC(=O)N[C@@H]1C)[C@@H](C)O` here?
Its IC50 is 9.7 µM.

What about the IC50 (Calu-3) of the same compound?
Its IC50 is 14.6 µM.

And the IC50 (PANC-1)?
Its IC50 is 9.5 µM.

And the IC50 (BXPC-3)?
The IC50 was 7.2 µM.

Which results are given for `CCC[C@H](C)[C@@H](O)[C@H](C)C[C@H](C)C[C@H](C)C(=O)CC(=O)N[C@@H](C(=O)N[C@@H](C)C(=O)N[C@H]1C(=O)N[C@@H](c2cc(O)c(C)c(O)c2)C(=O)N[C@@H]([C@@H](C)CC)C(=O)NCC(=O)N[C@@H]1C)[C@@H](C)O`?
IC50 (A549): > 100 µM; IC50 (Calu-3): > 100 µM; IC50 (PANC-1): > 100 µM; IC50 (BXPC-3): > 100 µM

With `CC[C@H](O[C@@H]1O[C@H](CO)[C@@H](OC)[C@H](O)[C@H]1O)[C@H](C)[C@@H](O)[C@H](C)C[C@H](C)C[C@H](C)C(=O)CC(=O)N[C@@H](C(=O)N[C@@H](C)C(=O)N[C@H]1C(=O)N[C@@H](c2cc(O)c(C)c(O)c2)C(=O)N[C@@H]([C@@H](C)CC)C(=O)NCC(=O)N[C@@H]1C)[C@@H](C)O` as the compound, how does the IC50 (A549) read?
The IC50 was 3.7 µM.

What about the IC50 (Calu-3) of the same compound?
Its IC50 is 12.2 µM.

And the IC50 (PANC-1)?
Its IC50 is 3.9 µM.

What about the IC50 (BXPC-3) of the same compound?
The IC50 was 3.9 µM.

Which IC50 (A549) does the source give for `CC[C@H](C)[C@@H]1NC(=O)[C@H](c2cc(O)c(C)c(O)c2)NC(=O)[C@H](NC(=O)[C@H](C)NC(=O)[C@H](NC(=O)CC(=O)[C@@H](C)C[C@@H](C)C[C@@H](C)[C@H](O)[C@@H](CO)[C@@H](O)CC)[C@@H](C)O)[C@@H](C)NC(=O)CNC1=O` here?
The IC50 was 10.4 µM.

And the IC50 (Calu-3)?
Its IC50 is 15.3 µM.

And the IC50 (PANC-1)?
Its IC50 is 6.6 µM.

And the IC50 (BXPC-3)?
Its IC50 is 8.2 µM.

How did the IC50 (A549) turn out when `CC[C@H](C)[C@@H]1NC(=O)[C@H](c2cc(O)c(C)c(O)c2)NC(=O)[C@H](NC(=O)[C@H](C)NC(=O)[C@H](NC(=O)CC(=O)[C@@H](C)C[C@@H](C)C[C@@H](C)[C@H](O)[C@@H](C)[C@@H](O[C@@H]2O[C@H](CO)[C@@H](OC)[C@H](O)[C@H]2O)[C@@H](C)O)[C@@H](C)O)[C@@H](C)NC(=O)CNC1=O` was run?
The IC50 was over 100 µM.

What about the IC50 (Calu-3) of the same compound?
Its IC50 is over 100 µM.

And the IC50 (PANC-1)?
Its IC50 is over 100 µM.

And the IC50 (BXPC-3)?
Its IC50 is over 100 µM.
